# Experimental data: patent US11691986B2, “PTEFB inhibiting macrocyclic compounds” (Bayer Aktiengesellschaft, priority 2017, dated 2023)
# What was measured:
# Format in all cases: cell-based
# Caco-2 cells = assay: Proliferation assay, Caco-2 (crystal violet); conditions: Homo sapiens, 96 h; Caco-2, 4 days; read-out: Inhibition of Caco-2 cell proliferation IC50
# Experimental: (§1) Cultivated tumour cells (HeLa, human cervical tumour cells, ATCC CCL-2; NCI-H460, human non-small cell lung carcinoma cells, ATCC HTB-177; DU 145, hormone-independent human prostate carcinoma cells, ATCC HTB-81; HeLa-MaTu-ADR, multidrug-resistant human cervical carcinoma cells, EPO-GmbH Berlin; Caco-2, human colorectal carcinoma cells, ATCC HTB-37; B16F10, mouse melanoma cells, ATCC CRL-6475) were plated at a density of 5,000 cells/well (DU145, HeLa-MaTu-ADR), 3,000 cells/well (NCI-H460, HeLa), 1,500 cells/well (Caco-2), or 1,000 cells/well (B16F10) in a 96-well multititer plate in 200 μL of their respective growth medium supplemented 10% fetal calf serum. After 24 hours, the cells of one plate (zero-point plate) were stained with crystal violet (see below), while the medium of the other plates was supplemented with the test substances in various concentrations (0 μM, as well as in the range of 0.0001-10 μM; the final concentration of the solvent dimethyl sulfoxide was adjusted to 0.1%) using a Hewlett-Packard HP D300 Digital Dispenser. The cells were incubated for 4 days in the presence of test substances. Cell proliferation was determined by staining the cells with crystal violet: the cells were fixed by adding 20 μl/measuring point of an 11% glutaric aldehyde solution for 15 minutes at room temperature. After three washing cycles of the fixed cells with water, the plates were dried at room temperature. The cells were stained by adding 100 μl/measuring point of a 0.1% crystal violet solution (pH 3.0). After three washing cycles of the stained cells with water, the plates were dried at room temperature. The dye was dissolved by adding 100 μl/measuring point of a 10% acetic acid solution. The extinction was determined by photometry at a wavelength of 595 nm. The change of cell number, in percent, was calculated by normalization of the measured values to the extinction values of the zero-point plate (=0%) and the extinction of the untreated (0 Wm) cells (=100%). The IC50 values (inhibitory concentration at 50% of maximal effect) were determined by means of a 4 parameter fit.
# DU145 cells = assay: Proliferation assay, DU145 (crystal violet); conditions: Homo sapiens, DU-145, 96 h; DU145, 4 days; read-out: Inhibition of DU145 cell proliferation IC50
# Experimental: as §1
# A2780 cells = assay: Proliferation assay, A2780 (Cell Titre-Glo); conditions: Homo sapiens; A2780, 72-hour exposure; read-out: Inhibition of A2780 cell proliferation IC50
# Experimental: A2780 human ovarian carcinoma cells (ECACC #93112519) and non-adherent MOLM-13 human acute myeloid leukemia cells (DSMZ ACC 554) were seeded at a density of 3,000 cell/well (A2780) or 5,000 cells/well (MOLM-13) in a 96-well multititer plate in 150 μL of growth medium supplemented 10% fetal calf serum. After 24 hours, cell viability of one plate (zero-point plate) was determined with the Cell Titre-Glo Luminescent Cell Viability Assay (Promega), while the medium of the other plates was supplemented with the test substances in various concentrations (0 μM, as well as in the range of 0.0001-10 μM; the final concentration of the solvent dimethyl sulfoxide was adjusted to 0.1%) using a Hewlett-Packard HP D300 Digital Dispenser. Cell viability was assessed after 72-hour exposure with the Cell Titre-Glo Luminescent Cell Viability Assay (Promega). IC50 values (inhibitory concentration at 50% of maximal effect) were determined by means of a 4 parameter fit on measurement data which were normalized to vehicle (DMSO) treated cells (=100%) and measurement readings taken immediately before compound exposure (=0%).
# B16F10 cells = assay: Proliferation assay, B16F10 (crystal violet); conditions: Mus musculus, B16-F10, 96 h; B16F10, 4 days; read-out: Inhibition of B16F10 cell proliferation IC50
# Experimental: as §1
# HeLa cells = assay: Proliferation assay, HeLa (crystal violet); conditions: Homo sapiens, 96 h, 4 days, read-out: Inhibition of HeLa cell proliferation IC50
# Experimental: as §1
# HeLa-MaTu-ADR cells = assay: Proliferation assay, HeLa-MaTu-ADR (crystal violet); conditions: Homo sapiens, 96 h, 4 days, read-out: Inhibition of HeLa-MaTu-ADR cell proliferation IC50
# Experimental: as §1
IC50 (Caco-2 cells) [nM],IC50 (DU145 cells) [nM],IC50 (A2780 cells) [nM],IC50 (B16F10 cells) [nM],IC50 (HeLa cells) [nM],IC50 (HeLa-MaTu-ADR cells) [nM],Compound
70,36,13,99,40,46,"CC(C)(C)OC(=O)N=S(C)(=O)Cc1cc2cc(c1)OCCCCNc1cc(ccc1F)-c1nc(ncc1F)N2 (racemic) [Example 1, (rac)-tert-butyl [{[3,20-difluoro-13-oxa-5,7,18,25-tetraazatetracyclo[17.3.1.1^2,6.1^8,12]pentacosa-1(23),2(25),3,5,8(24),9,11,19,21-nonaen-10-yl]methyl}(methyl)oxido-λ^6-sulfanylidene]carbamate]"
8.4,4.5,1.2,1.2,4.4,5.3,"CS(=N)(=O)Cc1cc2cc(c1)OCCCCNc1cc(ccc1F)-c1nc(ncc1F)N2 (racemic) [Example 2, (rac)-3,20-difluoro-10-[(S-methylsulfonimidoyl)methyl]-13-oxa-5,7,18,25-tetraazatetracyclo[17.3.1.1^2,6.1^8,12]pentacosa-1(23),2(25),3,5,8(24),9,11,19,21-nonaene]"
,,7.7,,,,"CC1CCCNc2cc(ccc2F)-c2nc(ncc2F)Nc2cc(CS(C)(=O)=O)cc(c2)O1 (racemic) [Example 8, (rac)-3,20-difluoro-14-methyl-10-[(methylsulfonyl)methyl]-13-oxa-5,7,18,25-tetraazatetracyclo[17.3.1.1^2,6.1^8,12]pentacosa-1(23),2(25),3,5,8(24),9,11,19,21-nonaene]"
20,17,5.9,25,15,23,"CS(=N)(=O)Cc1cc2cc(c1)OCCCNc1cc(ccc1F)-c1nc(ncc1F)N2 (racemic) [Example 3, (rac)-3,19-difluoro-10-[(S-methylsulfonimidoyl)methyl]-13-oxa-5,7,17,24-tetraazatetracyclo[16.3.1.1^2,6.1^8,12]tetracosa-1(22),2(24),3,5,8(23),9,11,18,20-nonaene]"
